From ChEMBL document CHEMBL1909046, “DrugMatrix in vitro pharmacology data”

Key:
[1] = DRUGMATRIX: Phosphodiesterase PDE4 enzyme inhibition (substrate: [3H]cAMP + cAMP); conditions: u-937; Not Active = under 50% inhibition at 10 µM
Cathepsin G = biological target: T1, Cathepsin G (Homo sapiens, UniProt P08311); assay type: tissue-based; conditions: neutrophil;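 also: inhibition of Cathepsin G enzyme activity, tested on an AMC-conjugated peptide substrate; in other assays of this panel Not Active means under 50% inhibition at 10 µM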
T1 sequence (P08311 whole entry): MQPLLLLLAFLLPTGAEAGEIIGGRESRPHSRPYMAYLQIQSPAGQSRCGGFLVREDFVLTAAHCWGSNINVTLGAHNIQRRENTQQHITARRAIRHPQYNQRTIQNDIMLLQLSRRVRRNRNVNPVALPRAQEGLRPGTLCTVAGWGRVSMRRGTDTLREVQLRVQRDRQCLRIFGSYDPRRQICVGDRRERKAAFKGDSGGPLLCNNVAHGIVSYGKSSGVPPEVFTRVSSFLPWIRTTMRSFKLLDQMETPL

[2] = biological target: T2, Cholecystokinin receptor type A (Homo sapiens, UniProt P32238); assay type: cell membranes, Membrane; conditions: 1321-n1; also: in other assays of this panel Not Active means under 50% inhibition at 10 µM
T2 sequence (P32238 whole entry): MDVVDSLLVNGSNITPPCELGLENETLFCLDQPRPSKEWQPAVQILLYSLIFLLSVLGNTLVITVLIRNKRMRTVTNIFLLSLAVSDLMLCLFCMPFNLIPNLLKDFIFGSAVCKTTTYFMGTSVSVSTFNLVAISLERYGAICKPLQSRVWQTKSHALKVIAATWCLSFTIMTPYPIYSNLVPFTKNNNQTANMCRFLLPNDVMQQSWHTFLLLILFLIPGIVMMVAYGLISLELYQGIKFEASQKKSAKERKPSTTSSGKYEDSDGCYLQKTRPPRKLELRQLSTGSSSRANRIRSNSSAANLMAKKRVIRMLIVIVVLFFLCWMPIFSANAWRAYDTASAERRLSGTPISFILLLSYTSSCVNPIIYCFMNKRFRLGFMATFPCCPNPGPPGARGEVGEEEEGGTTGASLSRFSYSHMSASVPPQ

[3] = DRUGMATRIX: Glutamate, NMDA, Agonism radioligand binding (ligand: [3H] CGP-39653); assay type: cell membranes, Rattus norvegicus, Wistar, Cerebral cortex, Membrane; conditions: Not Active = under 50% inhibition at 10 µM
[4] = biological target: Beta-3 adrenergic receptor (Homo sapiens, UniProt P13945); assay: DRUGMATRIX: Adrenergic beta3 radioligand binding (ligand: [125I] Cyanopindolol); assay type: cell membranes, HEK293, Membrane; conditions: hek293; Not Active = under 50% inhibition at 10 µM
Sequence of Beta-3 adrenergic receptor (P13945 whole entry): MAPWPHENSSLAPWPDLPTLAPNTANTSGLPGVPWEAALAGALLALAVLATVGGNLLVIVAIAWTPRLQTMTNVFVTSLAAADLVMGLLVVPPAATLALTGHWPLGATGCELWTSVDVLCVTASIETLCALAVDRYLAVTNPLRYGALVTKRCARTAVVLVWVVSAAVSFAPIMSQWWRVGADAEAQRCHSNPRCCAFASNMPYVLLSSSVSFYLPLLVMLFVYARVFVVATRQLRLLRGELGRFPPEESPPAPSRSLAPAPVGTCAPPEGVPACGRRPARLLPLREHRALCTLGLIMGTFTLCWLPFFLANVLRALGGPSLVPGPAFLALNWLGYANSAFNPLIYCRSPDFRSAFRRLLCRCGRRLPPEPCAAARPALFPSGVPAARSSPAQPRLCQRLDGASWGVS

[5] = biological target: C-C chemokine receptor type 2 (Homo sapiens, UniProt P41597); assay type: cell membranes, CHO-K1, Membrane; conditions: cho-k1; also: in other assays of this panel Not Active means under 50% inhibition at 10 µM
Sequence of C-C chemokine receptor type 2 (P41597 whole entry): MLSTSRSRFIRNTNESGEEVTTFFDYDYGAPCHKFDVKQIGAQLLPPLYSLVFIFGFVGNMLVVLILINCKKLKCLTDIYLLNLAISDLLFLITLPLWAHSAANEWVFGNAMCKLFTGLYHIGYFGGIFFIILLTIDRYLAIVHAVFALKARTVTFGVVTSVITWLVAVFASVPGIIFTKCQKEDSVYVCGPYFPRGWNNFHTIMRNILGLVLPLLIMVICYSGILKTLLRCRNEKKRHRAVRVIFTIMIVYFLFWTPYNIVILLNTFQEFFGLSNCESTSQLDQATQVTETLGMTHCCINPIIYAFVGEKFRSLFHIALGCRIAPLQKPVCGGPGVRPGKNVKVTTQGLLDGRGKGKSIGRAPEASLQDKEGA

Melanocortin receptor 3 = Melanocortin receptor 3 (Homo sapiens, UniProt P41968); assay type: cell membranes, HEK293, Membrane; conditions: hek293; also: in other assays of this panel Not Active means under 50% inhibition at 10 µM
Sequence of Melanocortin receptor 3 (P41968 whole entry): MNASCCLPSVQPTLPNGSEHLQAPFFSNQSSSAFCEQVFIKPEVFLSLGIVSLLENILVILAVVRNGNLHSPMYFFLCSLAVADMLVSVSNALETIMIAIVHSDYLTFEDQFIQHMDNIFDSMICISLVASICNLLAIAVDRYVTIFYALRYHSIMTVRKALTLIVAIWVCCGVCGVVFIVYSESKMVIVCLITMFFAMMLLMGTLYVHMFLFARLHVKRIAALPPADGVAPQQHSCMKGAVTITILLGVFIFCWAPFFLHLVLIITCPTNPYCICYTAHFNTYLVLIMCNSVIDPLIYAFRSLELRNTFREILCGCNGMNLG

[6] = DRUGMATRIX: GABAA, Flunitrazepam, Central radioligand binding (ligand: [3H] Flunitrazepam); assay type: cell membranes, Rattus norvegicus, Wistar, Brain, Membrane; conditions: Not Active = under 50% inhibition at 10 µM

CC(C)(C)NCC(O)c1cc(Cl)c(N)c(Cl)c1 (configuration not stated) [CLENBUTEROL]
Not Active: IC50 [1] | Ki [1] | IC50 (Cathepsin G) | IC50 [2] | IC50 [3] | Ki [3] | IC50 [4] | IC50 [5] | IC50 (Melanocortin receptor 3) | IC50 [6] | Ki [6]

CC(O)CO (configuration not stated) [PROPYLENE GLYCOL]
Not Active: IC50 [1] | Ki [1] | IC50 (Cathepsin G) | IC50 [2] | IC50 [3] | Ki [3] | IC50 [4] | IC50 [5] | IC50 (Melanocortin receptor 3) | IC50 [6] | Ki [6]

CC1Cc2ccccc2N1NC(=O)c1ccc(Cl)c(S(N)(=O)=O)c1 (configuration not stated) [INDAPAMIDE]
Not Active: IC50 [1] | Ki [1] | IC50 (Cathepsin G) | IC50 [2] | IC50 [3] | Ki [3] | IC50 [4] | IC50 [5] | IC50 (Melanocortin receptor 3) | IC50 [6] | Ki [6]

c1ccc(Nc2ccc(Nc3ccccc3)cc2)cc1
Not Active: IC50 [1] | Ki [1] | IC50 (Cathepsin G) | IC50 [2] | IC50 [3] | Ki [3] | IC50 [4] | IC50 [5] | IC50 (Melanocortin receptor 3) | IC50 [6] | Ki [6]

COc1cc2nc(N3CCN(C(=O)C4COc5ccccc5O4)CC3)nc(N)c2cc1OC (configuration not stated) [DOXAZOSIN]
Not Active: IC50 [1] | Ki [1] | IC50 (Cathepsin G) | IC50 [2] | IC50 [3] | Ki [3] | IC50 [4] | IC50 [5] | IC50 (Melanocortin receptor 3) | IC50 [6] | Ki [6]

CCOc1ccc(NC(C)=O)cc1 [PHENACETIN]
Not Active: IC50 [1] | Ki [1] | IC50 (Cathepsin G) | IC50 [2] | IC50 [3] | Ki [3] | IC50 [4] | IC50 [5] | IC50 (Melanocortin receptor 3) | IC50 [6] | Ki [6]

CN(C)CCCN1c2ccccc2Sc2ccc(Cl)cc21 [CHLORPROMAZINE]
Not Active: IC50 [1] | Ki [1] | IC50 (Cathepsin G) | IC50 [2] | IC50 [3] | Ki [3] | IC50 [4] | IC50 [5] | IC50 [6] | Ki [6]

CC(C)[C@H]1C(=O)N2CCC[C@H]2[C@]2(O)O[C@](NC(=O)[C@@H]3C=C4c5cccc6[nH]cc(c56)C[C@H]4N(C)C3)(C(C)C)C(=O)N12 [ERGOCORNINE]
Not Active: IC50 [1] | Ki [1] | IC50 (Cathepsin G) | IC50 [2] | IC50 [3] | Ki [3] | IC50 [4] | IC50 [5] | IC50 (Melanocortin receptor 3) | IC50 [6] | Ki [6]

CC(C)(Oc1ccc(Cl)cc1)C(=O)O [CLOFIBRIC ACID]
Not Active: IC50 [1] | Ki [1] | IC50 (Cathepsin G) | IC50 [2] | IC50 [3] | Ki [3] | IC50 [4] | IC50 [5] | IC50 (Melanocortin receptor 3) | IC50 [6] | Ki [6]

CCC(C)n1ncn(-c2ccc(N3CCN(c4ccc(OCC5COC(Cn6cncn6)(c6ccc(Cl)cc6Cl)O5)cc4)CC3)cc2)c1=O (configuration not stated) [ITRACONAZOLE]
Not Active: IC50 [1] | Ki [1] | IC50 (Cathepsin G) | IC50 [2] | IC50 [3] | Ki [3] | IC50 [4] | IC50 [5] | IC50 (Melanocortin receptor 3) | IC50 [6] | Ki [6]

O=c1oc2ccccc2c(O)c1Cc1c(O)c2ccccc2oc1=O [DICUMAROL]
Not Active: IC50 [1] | Ki [1] | IC50 (Cathepsin G) | IC50 [2] | IC50 [3] | Ki [3] | IC50 [4] | IC50 [5] | IC50 (Melanocortin receptor 3) | IC50 [6] | Ki [6]

Cc1onc(O)c1CC(N)C(=O)O (racemic) [(R,S)-AMPA]
Not Active: IC50 [1] | Ki [1] | IC50 (Cathepsin G) | IC50 [2] | IC50 [3] | Ki [3] | IC50 [4] | IC50 [5] | IC50 (Melanocortin receptor 3) | IC50 [6] | Ki [6]

CC1=C2C(=CO[C@H](C)[C@H]2C)C(O)=C(C(=O)O)C1=O [CITRININ]
Not Active: IC50 [1] | Ki [1] | IC50 (Cathepsin G) | IC50 [2] | IC50 [3] | Ki [3] | IC50 [4] | IC50 [5] | IC50 (Melanocortin receptor 3) | IC50 [6] | Ki [6]

Nc1nc2c(ncn2COCCO)c(=O)[nH]1 [ACYCLOVIR]
Not Active: IC50 [1] | Ki [1] | IC50 (Cathepsin G) | IC50 [2] | IC50 [3] | Ki [3] | IC50 [4] | IC50 [5] | IC50 (Melanocortin receptor 3) | IC50 [6] | Ki [6]

CCOC(=O)C1=C(COCCN)NC(C)=C(C(=O)OC)C1c1ccccc1Cl (configuration not stated) [AMLODIPINE]
Not Active: IC50 [1] | Ki [1] | IC50 (Cathepsin G) | IC50 [2] | IC50 [3] | Ki [3] | IC50 [4] | IC50 [5] | IC50 (Melanocortin receptor 3) | IC50 [6] | Ki [6]

O=C1CC[C@@H](N2C(=O)c3ccccc3C2=O)C(=O)N1
Not Active: IC50 [1] | Ki [1] | IC50 (Cathepsin G) | IC50 [2] | IC50 [3] | Ki [3] | IC50 [4] | IC50 [5] | IC50 (Melanocortin receptor 3) | IC50 [6] | Ki [6]

Cc1ccc(N(CC2=NCCN2)c2cccc(O)c2)cc1 [PHENTOLAMINE]
Not Active: IC50 [1] | Ki [1] | IC50 (Cathepsin G) | IC50 [2] | IC50 [3] | Ki [3] | IC50 [4] | IC50 [5] | IC50 (Melanocortin receptor 3) | IC50 [6] | Ki [6]

CC(C)C(Br)C(=O)NC(N)=O (configuration not stated) [BROMISOVALUM]
Not Active: IC50 [1] | Ki [1] | IC50 (Cathepsin G) | IC50 [2] | IC50 [3] | Ki [3] | IC50 [4] | IC50 [5] | IC50 (Melanocortin receptor 3) | IC50 [6] | Ki [6]

Cc1ccccc1N1C(=O)c2cc(S(N)(=O)=O)c(Cl)cc2NC1C (configuration not stated) [METOLAZONE]
Not Active: IC50 [1] | Ki [1] | IC50 (Cathepsin G) | IC50 [2] | IC50 [3] | Ki [3] | IC50 [4] | IC50 [5] | IC50 (Melanocortin receptor 3) | IC50 [6] | Ki [6]

C1CCC(C(CC2CCCCN2)C2CCCCC2)CC1 (configuration not stated) [PERHEXILINE]
Not Active: IC50 [1] | Ki [1] | IC50 (Cathepsin G) | IC50 [2] | IC50 [3] | Ki [3] | IC50 [4] | IC50 [5] | IC50 (Melanocortin receptor 3) | IC50 [6] | Ki [6]

CC(C)CN(C[C@@H](O)[C@H](Cc1ccccc1)NC(=O)O[C@H]1CCOC1)S(=O)(=O)c1ccc(N)cc1
Not Active: IC50 [1] | Ki [1] | IC50 (Cathepsin G) | IC50 [2] | IC50 [3] | Ki [3] | IC50 [4] | IC50 [5] | IC50 (Melanocortin receptor 3) | IC50 [6] | Ki [6]

Cc1ccc2cc3c(ccc4ccccc43)c3c2c1CC3 [3-METHYLCHOLANTHRENE]
Not Active: IC50 [1] | Ki [1] | IC50 (Cathepsin G) | IC50 [2] | IC50 [3] | Ki [3] | IC50 [4] | IC50 [5] | IC50 (Melanocortin receptor 3) | IC50 [6] | Ki [6]

Nc1nc2c(ncn2CCC(CO)CO)c(=O)[nH]1 [PENCICLOVIR]
Not Active: IC50 [1] | Ki [1] | IC50 (Cathepsin G) | IC50 [2] | IC50 [3] | Ki [3] | IC50 [4] | IC50 [5] | IC50 (Melanocortin receptor 3) | IC50 [6] | Ki [6]

CCCCc1nc(Cl)c(CO)n1Cc1ccc(-c2ccccc2-c2nnn[nH]2)cc1 [LOSARTAN]
Not Active: IC50 [1] | Ki [1] | IC50 (Cathepsin G) | IC50 [2] | IC50 [3] | Ki [3] | IC50 [4] | IC50 (Melanocortin receptor 3) | IC50 [6] | Ki [6]
